Earlier results as cited in patent US20080255231A1, “POLYMORPHS OF RIVASTIGMINE HYDROGENTARTRATE” (priority 2007, published 2008).

SMILES: CCN(C)C(=O)Oc1cccc([C@H](C)N(C)C)c1 [Rivastigmine hydrogentartrate, [3-[α-(Dimethylamino)-ethyl]phenyl]-N-methylethylcarbamate hydrogentartrate]
- solubility in acetonitrile (acetonitrile): soluble
- solubility in ethanol (ethanol): soluble
- solubility in ethyl acetate (ethyl acetate): very slightly soluble
- solubility in n-octanol (n-octanol): slightly soluble
- solubility in water (water): very soluble
